The text below walks through data of ChEMBL document CHEMBL5649166, “RIP3 induces apoptosis independent of pronecrotic kinase activity” (Mol Cell, 2014).

Each structure is given as a SMILES string.

The target in assay [1] is T1, Serine/threonine-protein kinase D3 (Homo sapiens) (UniProt O94806).
T1 sequence (whole entry): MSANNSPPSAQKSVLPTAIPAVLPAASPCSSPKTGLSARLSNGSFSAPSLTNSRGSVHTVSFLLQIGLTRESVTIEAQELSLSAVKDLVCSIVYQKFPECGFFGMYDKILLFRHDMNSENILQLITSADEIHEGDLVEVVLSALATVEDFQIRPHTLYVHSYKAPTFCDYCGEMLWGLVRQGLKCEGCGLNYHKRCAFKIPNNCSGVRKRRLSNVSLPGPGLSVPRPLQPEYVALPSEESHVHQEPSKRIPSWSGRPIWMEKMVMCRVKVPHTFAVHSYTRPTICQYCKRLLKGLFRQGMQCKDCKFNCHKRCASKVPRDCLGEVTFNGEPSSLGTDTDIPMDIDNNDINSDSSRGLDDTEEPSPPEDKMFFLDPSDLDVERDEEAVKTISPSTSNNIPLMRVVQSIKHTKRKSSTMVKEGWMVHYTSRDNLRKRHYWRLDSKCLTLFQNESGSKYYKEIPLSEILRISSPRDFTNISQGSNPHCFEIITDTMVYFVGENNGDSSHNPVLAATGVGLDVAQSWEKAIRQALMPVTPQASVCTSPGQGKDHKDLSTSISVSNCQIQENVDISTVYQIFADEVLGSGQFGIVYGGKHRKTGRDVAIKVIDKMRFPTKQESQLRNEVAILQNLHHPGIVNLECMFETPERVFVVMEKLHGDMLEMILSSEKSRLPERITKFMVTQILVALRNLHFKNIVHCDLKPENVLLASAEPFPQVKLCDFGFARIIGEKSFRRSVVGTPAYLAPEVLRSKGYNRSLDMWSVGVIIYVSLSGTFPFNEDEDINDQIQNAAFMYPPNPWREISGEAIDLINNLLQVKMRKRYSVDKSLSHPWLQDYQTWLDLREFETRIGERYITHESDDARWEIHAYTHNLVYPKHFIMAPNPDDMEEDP
The experiment in a line: Inhibition of human PKCnu/PRKD3 using KKLNRTLSVA as substrate at 1 uM in presence of 32P-ATP by Hotspot assay relative to control; values are per cent of control.

Assay [2] addresses T2, Mitogen-activated protein kinase kinase kinase 5 (Homo sapiens) (UniProt Q99683).
T2 sequence (whole entry): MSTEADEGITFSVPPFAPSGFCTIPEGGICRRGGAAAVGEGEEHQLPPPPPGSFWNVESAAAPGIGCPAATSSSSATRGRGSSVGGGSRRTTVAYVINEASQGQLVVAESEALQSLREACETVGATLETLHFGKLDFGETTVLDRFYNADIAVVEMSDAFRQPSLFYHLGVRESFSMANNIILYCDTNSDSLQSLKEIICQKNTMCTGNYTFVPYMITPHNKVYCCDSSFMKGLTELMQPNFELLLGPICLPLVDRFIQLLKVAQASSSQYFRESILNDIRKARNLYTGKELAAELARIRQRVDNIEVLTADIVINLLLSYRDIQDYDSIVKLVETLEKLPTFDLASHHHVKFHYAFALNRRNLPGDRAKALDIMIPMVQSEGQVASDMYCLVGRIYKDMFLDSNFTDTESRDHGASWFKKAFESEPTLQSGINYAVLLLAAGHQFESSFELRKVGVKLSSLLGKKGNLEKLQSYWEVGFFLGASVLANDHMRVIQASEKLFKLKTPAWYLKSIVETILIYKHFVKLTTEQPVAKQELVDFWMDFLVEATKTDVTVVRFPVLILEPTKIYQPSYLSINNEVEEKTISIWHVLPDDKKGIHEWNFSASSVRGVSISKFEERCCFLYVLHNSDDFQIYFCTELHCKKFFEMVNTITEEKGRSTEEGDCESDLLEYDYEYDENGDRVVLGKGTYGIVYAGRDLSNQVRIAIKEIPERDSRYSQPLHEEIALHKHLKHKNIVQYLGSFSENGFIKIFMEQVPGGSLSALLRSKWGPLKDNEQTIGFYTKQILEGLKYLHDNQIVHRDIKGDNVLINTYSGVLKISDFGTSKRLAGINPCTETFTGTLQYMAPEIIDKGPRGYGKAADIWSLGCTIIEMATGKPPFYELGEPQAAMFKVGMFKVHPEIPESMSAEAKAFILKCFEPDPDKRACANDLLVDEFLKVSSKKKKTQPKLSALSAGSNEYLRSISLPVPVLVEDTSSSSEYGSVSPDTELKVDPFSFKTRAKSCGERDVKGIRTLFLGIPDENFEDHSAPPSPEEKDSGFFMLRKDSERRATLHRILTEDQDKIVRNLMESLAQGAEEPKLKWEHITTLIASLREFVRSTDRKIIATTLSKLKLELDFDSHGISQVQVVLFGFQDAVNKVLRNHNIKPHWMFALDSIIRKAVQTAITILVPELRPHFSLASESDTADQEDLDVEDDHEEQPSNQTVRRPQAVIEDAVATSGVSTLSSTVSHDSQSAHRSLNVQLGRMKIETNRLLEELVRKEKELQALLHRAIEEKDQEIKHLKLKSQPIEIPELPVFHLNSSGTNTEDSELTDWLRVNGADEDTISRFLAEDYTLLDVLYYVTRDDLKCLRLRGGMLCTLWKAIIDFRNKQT
The experiment in a line: Inhibition of human ASK1/MAP3K5 using myelin basic protein as substrate at 1 uM in presence of 32P-ATP by Hotspot assay relative to control; values are per cent of control.

Assay [3] addresses T3, Megakaryocyte-associated tyrosine-protein kinase (Homo sapiens) (UniProt P42679).
T3 sequence (whole entry): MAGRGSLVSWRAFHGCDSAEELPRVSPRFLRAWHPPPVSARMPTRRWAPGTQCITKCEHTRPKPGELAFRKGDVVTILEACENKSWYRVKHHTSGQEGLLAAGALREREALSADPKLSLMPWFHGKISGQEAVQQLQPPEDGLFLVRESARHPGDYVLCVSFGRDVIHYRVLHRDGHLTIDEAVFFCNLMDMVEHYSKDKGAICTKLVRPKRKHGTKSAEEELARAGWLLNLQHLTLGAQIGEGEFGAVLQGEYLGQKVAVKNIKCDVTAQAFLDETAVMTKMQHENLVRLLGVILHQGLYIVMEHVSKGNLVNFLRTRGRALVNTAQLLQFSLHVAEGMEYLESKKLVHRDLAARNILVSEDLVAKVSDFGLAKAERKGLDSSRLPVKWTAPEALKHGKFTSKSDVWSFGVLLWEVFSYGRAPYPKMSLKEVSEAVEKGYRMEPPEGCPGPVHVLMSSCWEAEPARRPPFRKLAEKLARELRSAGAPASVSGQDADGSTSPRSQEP
The experiment in a line: Inhibition of human CTK/MATK using poly[Glu:Tyr] (4:1) as substrate at 1 uM in presence of 32P-ATP by Hotspot assay relative to control; values are per cent of control.

For the molecule `CC(C)S(=O)(=O)c1ccc2nccc(Nc3ccc4scnc4c3)c2c1`, the residual activity in assay [1] came to 95.4%; in assay [2], 97.6%; in assay [3], 98.5%.

For `CNC(=O)c1ccc2c(c1)ncn2-c1ccc(CC(=O)OC(C)(C)C)cc1`, the residual activity in assay [1] was found to be 101%; in assay [2], 96.7%; in assay [3], 93.7%.

Turning to `Cc1cc(-c2cnc(N)c3c(-c4ccc5scnc5c4)csc23)n(C)n1`, the residual activity in assay [1] is 33.4%; in assay [2], 102%; in assay [3] it was 79.2%.
